How the values were obtained:
[1] = molecular target: T1, human delta receptor (Homo sapiens, UniProt P41143); assay: [35S]GTP γS binding functional assay, CHO cell membranes; assay type: biochemical
T1 construct: expressed in transfected cells; host or cells: CHO cells

[2] = molecular target: T2, human kappa receptor (Homo sapiens, UniProt P41145); assay: Opioid receptor binding affinity, [3H]U69593, CHO cell membranes
T2 construct: expressed in transfected cells; host or cells: CHO cells

[3] = molecular target: T1, human delta receptor; assay: Opioid receptor binding affinity, [3H]Cl-DPDPE, CHO cell membranes
[4] = molecular target: T2, human kappa receptor; assay: [35S]GTP γS binding functional assay, CHO cell membranes; assay type: biochemical; conditions: 1 hr at 25 C

T1 sequence (P41143 whole entry): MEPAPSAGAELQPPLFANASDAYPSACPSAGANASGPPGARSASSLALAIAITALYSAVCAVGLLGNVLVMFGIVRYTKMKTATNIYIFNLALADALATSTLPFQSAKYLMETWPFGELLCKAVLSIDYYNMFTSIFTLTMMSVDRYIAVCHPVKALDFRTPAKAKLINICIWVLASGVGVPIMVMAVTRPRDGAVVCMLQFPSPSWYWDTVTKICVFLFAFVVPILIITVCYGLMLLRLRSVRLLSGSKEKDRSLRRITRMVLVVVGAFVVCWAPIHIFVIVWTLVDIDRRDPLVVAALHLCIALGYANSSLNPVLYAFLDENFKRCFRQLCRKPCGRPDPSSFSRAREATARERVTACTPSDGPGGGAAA
T2 sequence (P41145 whole entry): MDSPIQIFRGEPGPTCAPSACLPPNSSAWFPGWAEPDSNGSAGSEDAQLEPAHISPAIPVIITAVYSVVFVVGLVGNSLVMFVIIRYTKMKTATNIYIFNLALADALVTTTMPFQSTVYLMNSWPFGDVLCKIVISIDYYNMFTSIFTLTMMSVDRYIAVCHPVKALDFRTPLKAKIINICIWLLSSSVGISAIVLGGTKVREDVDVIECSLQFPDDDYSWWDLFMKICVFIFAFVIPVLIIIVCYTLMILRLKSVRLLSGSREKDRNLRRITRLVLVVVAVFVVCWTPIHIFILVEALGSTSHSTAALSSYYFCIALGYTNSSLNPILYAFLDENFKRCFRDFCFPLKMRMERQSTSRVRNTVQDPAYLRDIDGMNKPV

## C[C@H](C1CC1)N1CC[C@]23CCCC[C@H]2[C@H]1Cc1ccc(O)cc13 [Compound 5]
[1]
  EC50: 9.01 ± 2.6 nM
[1]; [35S]GTP γS, 1 hr at 25 C
  percent stimulation at the delta receptor: 39.8±3.9%
[2]
  Ki: 0.29 ± 0.1 nM
[3]
  Ki: 2.47 ± 0.1 nM
[4]
  percent stimulation at the kappa receptor: 41.7±5.0%

Source: patent publication US8987293B2, “Morphinans useful as analgesics” (Phoenix Pharmalabs, Inc., priority 2010, dated 2015)
